Assay results from patent US20240279232A1, “USE OF SUBSTITUTED 5-(4-METHYL-6-PHENYL-4H-BENZO[F]IMIDAZO[1,5-A][1,4] DIAZEPIN-3-YL)-1,2,4-O[…] THE TREATMENT OF INFLAMMATORY CONDITIONS” (priority 2021, published 2024).

Columns and labels:
[1] = tested on: BZR (benzodiazepine site of GABAAR); experiment: GABAAR/BZR binding, rat brain homogenate with 3H-flunitrazepam; details: rat brain homogenate, 3H-flunitrazepam; for BZR %: Percent inhibition at 10,000 nM
Method in brief: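 Rat brain homogenate incubated with 3H-flunitrazepam near its Kd, typically 90 min at room temperature in the dark; nonspecific binding defined with 10 μM reference compound. Filtration on PEI-soaked mats, scintillation counting; compounds screened at 10,000 nM, those above 50% displacement taken to concentration–response for Ki by nonlinear regression (n=6).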

[2] = target: T1, DOR (δ opioid receptor) (Homo sapiens, UniProt P41143); experiment: DOR radioligand binding ([3H]-DADLE, HEK293 cell homogenates); details: Percent inhibition at 10,000 nM; [3H]-DADLE
T1 construct: expressed in transfected cells; host or cells: HEK293

[3] = tested on: Mouse microglia; experiment: Cell viability (CellTiter-Glo), mouse microglia; assay type: cell-based; details: 50 μM; for Cell viability (%) Mouse microglia 50 μM: CellTiter-Glo
Method in brief: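 Mouse microglia (1×10^6 cells/mL) activated with 50 ng/ml LPS plus 150 U/mL IFNγ, incubated with compounds ~24 h at 37° C. Viability of remaining cells read by CellTiter-Glo luminescence after supernatant removal for Griess NO assay; […].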

[4] = tested on: RAW macrophages; experiment: NO production (Griess assay), LPS/IFNγ-activated RAW264.7 macrophages; assay type: cell-based, mouse; details: Mus musculus, Macrophage, 24 h
[5] = target: T2, MOR (μ opioid receptor) (Homo sapiens, UniProt P35372); experiment: MOR radioligand binding ([3H]-DAMGO, HEK293 cell homogenates); details: Percent inhibition at 10,000 nM; [3H]-DAMGO
T2 construct: expressed in transfected cells; host or cells: HEK293

[6] = tested on: RAW macrophages; experiment: Cell viability (CellTiter-Glo), RAW macrophages; assay type: cell-based, mouse; details: for Cell viability (%) RAW macrophages 50 μM: CellTiter-Glo
[7] = tested on: HEPG2; experiment: Viability assay (CellTiter-Glo), HEPG2; assay type: cell-based, human; details: for Cell viability (%) HEPG2 120 μM: CellTiter-Glo; for toxicity at 120 μM (in words): HepG2, 120 μM

T2 sequence (P35372 whole entry, species assumed): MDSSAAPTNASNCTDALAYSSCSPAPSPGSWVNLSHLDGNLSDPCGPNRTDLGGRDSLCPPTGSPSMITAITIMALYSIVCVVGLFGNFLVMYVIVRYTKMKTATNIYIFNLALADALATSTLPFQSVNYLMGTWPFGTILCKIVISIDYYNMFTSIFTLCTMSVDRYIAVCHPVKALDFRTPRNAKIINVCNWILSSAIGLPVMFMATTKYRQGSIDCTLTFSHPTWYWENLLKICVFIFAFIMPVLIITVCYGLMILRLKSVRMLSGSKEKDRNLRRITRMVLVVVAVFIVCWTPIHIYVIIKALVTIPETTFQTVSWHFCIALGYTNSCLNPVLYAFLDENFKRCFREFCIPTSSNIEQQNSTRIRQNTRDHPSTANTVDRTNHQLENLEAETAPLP
T1 sequence (P41143 whole entry): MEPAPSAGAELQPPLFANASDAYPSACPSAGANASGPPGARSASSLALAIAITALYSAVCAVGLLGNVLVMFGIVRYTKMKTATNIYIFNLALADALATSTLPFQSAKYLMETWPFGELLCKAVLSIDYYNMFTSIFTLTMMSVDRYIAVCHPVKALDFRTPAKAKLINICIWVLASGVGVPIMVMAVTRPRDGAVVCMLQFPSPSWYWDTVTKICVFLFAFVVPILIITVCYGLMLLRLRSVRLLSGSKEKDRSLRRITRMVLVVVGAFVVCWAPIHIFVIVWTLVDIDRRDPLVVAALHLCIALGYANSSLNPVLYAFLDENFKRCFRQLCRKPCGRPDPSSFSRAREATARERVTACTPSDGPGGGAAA

SMILES | BZR % [1] | Ki [1] | inhibition at 10 µM [2] | Cell viability (%) Mouse microglia 50 μM [3] | inhibition at 10 µM [4] | inhibition at 10 µM [5] | Cell viability (%) RAW macrophages 50 μM [6] | Cell viability (%) HEPG2 120 μM [7] | inhibition at 50 µM [4] | toxicity at 120 μM (in words) [7] | toxicity at 50 μM (in words) ([3]; microglia) | toxicity at 50 μM (in words) ([6]; macrophages)
CCOC(=O)c1ncn2c1[C@@H](C)N=C(c1ccccn1)c1cc(Br)ccc1-2 [GL-II-06] | 81% | 556 nM | 9% | 87 ± 13% | 4 ± 2% | 11% | 100 ± 10% | 89 ± 5% |  |  |  | 
C[C@H]1N=C(c2ccccn2)c2cc(Br)ccc2-n2cnc(C(=O)O)c21 [GL-II-51] | 84% | 181 nM | 0% | 95 ± 2% | 0% | 0% | 100 ± 3% | 100 ± 16% |  |  |  | 
C[C@H]1N=C(c2ccccc2F)c2cc(Br)ccc2-n2cnc(-c3cnco3)c21 [GL-III-36] | 86% | 319 nM | 12% | 97 ± 9% | 0% | 0% | 81 ± 5% | 100 ± 9% | 58 ± 9% |  |  | 
CCOC(=O)c1ncn2c1[C@@H](C)N=C(c1ccccc1F)c1cc(C3CC3)ccc1-2 [GL-III-42] | 62% | 726 nM | 13% | 82 ± 10% | 0% | 0% | 100 ± 6% | 100 ± 8% |  |  |  | 
C[C@H]1N=C(c2ccccc2F)c2cc(Cl)ccc2-n2cnc(C(=O)O)c21 [GL-III-54] | 100% | 42 nM | 0% | 82 ± 6% | 6 ± 4% | 0% | 99 ± 12% | 93 ± 4% |  |  |  | 
Cc1noc(-c2ncn3c2[C@@H](C)N=C(c2ccccc2F)c2cc(Br)ccc2-3)n1 [GL-III-60, (R)-5-(8-Bromo-6-(2-fluorophenyl)-4-methyl-4H-benzo[f]imidazo[1,5-a][1,4]diazepin-3-yl)-3-methyl-1,2,4-oxadiazole] | 100% | 784 nM | 18% | 100 ± 9% | 0% | 26% | 86 ± 12% | 100 ± 11% | 39 ± 8% |  |  | 
Cc1noc(-c2ncn3c2[C@@H](C)N=C(c2ccccc2F)c2cc(C4CC4)ccc2-3)n1 [GL-III-63, (R)-5-(8-Cyclopropyl-6-(2-fluorophenyl)-4-methyl-4H-benzo[f]imidazo[1,5-a][1,4]diazepin-3-yl)-3-methyl-1,2,4-oxadiazole] | 28% |  | 31% | 100 ± 8% | 13 ± 4% | 8% | 87 ± 15% | 16 ± 6% | 62 ± 12% | toxic |  | 
C#Cc1ccc2c(c1)C(c1ccccc1F)=N[C@H](C)c1c(C(=O)NC(C)C)ncn1-2 [GL-III-66] | 88% | 271 nM | 0% | 85 ± 15% | 6 ± 4% | 0% | 100 ± 9% | 86 ± 8% |  |  |  | 
CCNC(=O)c1ncn2c1[C@@H](C)N=C(c1ccccc1F)c1cc(C3CC3)ccc1-2 [GL-III-68] | 100% | 452 nM | 10% | 83 ± 3% | 5 ± 1% | 0% | 100 ± 8% | 83 ± 2% |  |  |  | 
C[C@H]1N=C(c2ccccc2F)c2cc(Br)ccc2-n2cnc(C(=O)N(C)C)c21 [GL-III-69] | 100% | 446 nM | 10% | 87 ± 6% | 0% | 0% | 98 ± 10% | 88 ± 5% |  |  |  | 
C[C@H]1N=C(c2ccccc2F)c2cc(C3CC3)ccc2-n2cnc(C(=O)N(C)C)c21 [GL-III-70] | 100% | 3400 nM | 50% | 86 ± 2% | 2 ± 2% | 0% | 100 ± 2% | 100 ± 5% |  |  |  | 
C#Cc1ccc2c(c1)C(c1ccccc1F)=N[C@H](C)c1c(-c3cnco3)ncn1-2 [GL-III-73] | 65% | 602 nM | 4% | 80 ± 9% | 1 ± 6% | 12% | 100 ± 4% | 100 ± 9% |  |  |  | 
C[C@@H]1N=C(c2ccccc2F)c2cc(Br)ccc2-n2cnc(-c3cnco3)c21 [GL-III-76] | 100% | 120 nM | 0% | 80 ± 2% | 0% | 3% | 100 ± 5% | 90 ± 6% |  |  |  | 
C#Cc1ccc2c(c1)C(c1ccccc1F)=N[C@@H](C)c1c(-c3cnco3)ncn1-2 [GL-III-78] | 101% | 26 nM | 9% | 79 ± 6% | 0% | 10% | 97 ± 2% | 100 ± 15% |  |  |  | 
CCc1noc(-c2ncn3c2[C@@H](C)N=C(c2ccccc2F)c2cc(C4CC4)ccc2-3)n1 [GL-IV-03, (R)-5-(8-Cyclopropyl-6-(2-fluorophenyl)-4-methyl-4H-benzo[f]imidazo[1,5-a][1,4]diazepin-3-yl)-3-ethyl-1,2,4-oxadiazole] | 65% |  | 67% | 100 ± 5% | 75% | 25% | 97 ± 7% | 39 ± 5% |  | to a lesser degree | no significant toxicity | no significant toxicity
C#Cc1ccc2c(c1)C(c1ccccc1F)=N[C@H](C)c1c(C(=O)NC)ncn1-2 [MP-III-022] | 95% | 83 nM | 22% | 86 ± 2% | 9 ± 5% | 3% | 100 ± 11% | 94 ± 7% | 51 ± 7% |  |  | 
